Reference: patent US6576784B1, “Antiviral agents” (Yeda Research and Development Co. Ltd., priority 1993, dated 2003)

Experiments:
[1] = Quantum yield of singlet oxygen formation on irradiation in liposomes; format: physicochemical; settings: for singlet oxygen formed on irradiation in liposomes (in words): irradiation with visible light, bound to liposomes; for Quantum yields of singlet oxygen (φΔ) formed on irradiation of hypericin analogs in liposomes: soya liposomes, DPBF, light of 420 nm
[2] = tested on: non-enveloped viruses such as polio and rhino viruses; settings: Tang et al., Antiviral Res. 13:313 (1990); cited from earlier work
[3] = tested on: Murine Radiation Leukemia Virus (Rad LV); experiment: Direct inactivation of murine radiation leukemia virus measured by inhibition of virus particle derived reverse transcriptase activity; format: biochemical; settings: 0.01 μg/ml; virus incubated with compound on ice 30 min; FIG. 1
Experimental: Determination of Antiretroviral Activity of Hypericin Analogs by Monitoring the Direct Inactivation of Murine Radiation Leukemia Virus (Rad LV) Measured by the Inhibition of Virus Particle Derived Reverse Transcriptase Activity
Virus particles released into the growth medium of the AQR lymphoblastoid cell line which is infected with and producing RadLV, were exposed to hypericin and hypericin analogs. The virus and the substrate were incubated on ice for a period of 30 min., after which time the virus was precipitated by ultracentrifugation at 40,000 rpm for 1 hour in a Beckman ultracentrifuge, and analyzed for reverse transcriptase according to Stephenson et al., Virology 48:749 (1972). The results shown in FIG. 1 are expressed as counts per minute of tritiated-thymidine incorporation.

Murine Friend Virus = experiment: Inhibition of Friend virus splenomegaly in BALB/c mice; format: in vivo; settings: single intravenous dose within 1 hour of infection, FIG. 2
From the text: Antiretroviral Activity of Hypericin Analogs Against Murine Friend Virus in BALB/c Mice
Mice infected with Friend virus (FV) develop a virus induced erythroleukemia whose early manifestation is a 4-8 time enlargement of the spleen size (splenomegaly) within 10 days after infection with the virus. Inhibition of splenomegaly can be used to quantitate the antiretroviral activity of various compounds in vivo. In this experiment, mice, in groups of 3, were infected with Friend virus and hypericin analogs (0.5 ml of solution in PBS) were then administered intravenously within 1 hour of the infection in a single dose of 1, 10, 50 and 150 μg per mouse.

[4] = G. Lavie et al, J.N.Y. Acad. Sci. 616:556, 1990; cited from earlier work

## Cc1cc(O)c2c(=O)c3c(O)cc(O)c4c5c(O)cc(O)c6c(=O)c7c(O)cc(C)c8c1c2c(c34)c(c78)c65 [hypericin, Hypericin, reference compound]
[1]
  singlet oxygen formed on irradiation in liposomes (in words): comparatively high
[2]
  activity against non-enveloped viruses (in words): not active

## Methyl Ester Analog of Hypericin [Example 1]
[3]
  antiviral activity (inhibition of virus particle derived reverse transcriptase activity, tritiated-thymidine incorporation): antiviral activity
[1]
  Quantum yields of singlet oxygen (φΔ) formed on irradiation of hypericin analogs in liposomes: 0.38
Murine Friend Virus; 10 μg per mouse
  inhibition of splenomegaly: 65%

## 2-Methoxyethyl Ester Analog of Hypericin [Example 4]
[1]
  Quantum yields of singlet oxygen (φΔ) formed on irradiation of hypericin analogs in liposomes: 0.35

## 2-(2-Methoxyethoxy)ethyl Ester Analog of Hypericin [Example 5]
[1]
  Quantum yields of singlet oxygen (φΔ) formed on irradiation of hypericin analogs in liposomes: 0.1

## n-propyl Ester Analog of Hypericin [Example 2]
Murine Friend Virus; 10 μg per mouse
  inhibition of splenomegaly: 47%

## n-butyl Ester Analog of Hypericin [Example 3]
[3]
  antiviral activity (inhibition of virus particle derived reverse transcriptase activity, tritiated-thymidine incorporation): antiviral activity
Murine Friend Virus; 150 μg per mouse
  inhibition of splenomegaly: 70%

## octahydroxy hypericin [R1, R2 = OH, reference compound]
[1]
  singlet oxygen formed on irradiation in liposomes (in words): did not produce detectable yields of singlet oxygen
  Quantum yields of singlet oxygen (φΔ) formed on irradiation of hypericin analogs in liposomes: <0.01
[4]
  antiviral activity (in words): very weak antiviral activity
